Reference: patent publication US7105313B2, “Cell-based drug screens for regulators of gene expression” (Amgen Inc., priority 1996, dated 2006)

Key:
LDLR gene expression [1] = assay: Luciferase activity of the LDLR-luciferase knock-in HepG2 cell line; assay type: cell-based, human; conditions: LDLR luciferase knock-in HepG2 cells
Procedure: To determine whether the expression of luciferase gene is regulated as the same way as the endogenous LDLR gene, RNA was prepared and analyzed by Northern hybridization. […] The cholesterol-dependent regulation is the hallmark of LDLR gene expression. As indicated, the LDLR mRNA was regulated by in the presence or absence of cholesterol, albeit in this case the LDLR mRNA level was reduced to half due to the loss of one allele, which was replaced by the luciferase gene. The use of the luciferase knock-in cell line for LDLR gene expression was further validated by the luciferase activity, which was also regulated by cholesterol as predicted. • Aliquot 100 ul cell suspension (10^4–10^5 primary or cultured, differentiated cells) into each well of 96-well plate under sterile conditions • Add compound or extract to 10 uM final concentration • Incubate 6–18 hrs at 37° C. • Remove incubation media • Add 100 ul lysis/luciferin buffer containing 1.0% non-ionic detergent (Triton x-100), 530 uM ATP, 270 uM coA and 470 uM luciferin (Promega). • Measure luciferase-derived luminescence on automated Torcon AML-34 and 7710 Microplate Luminometer (Cambridge Technologies, Inc.) luminometers.

LDLR gene expression [2] = assay: Northern hybridization of RNA from the LDLR-luciferase knock-in HepG2 cell line; assay type: cell-based, human; conditions: LDLR luciferase knock-in HepG2 cells
Procedure: The LDLR targeting construct was introduced into HepG2 cells by electroporation. Following recovery, the cells were maintained in media supplemented 1 mg/ml G418 and 2 uM gancyclovir for 3-4 weeks until individual colonies were observed. These […] isolated and propagated as individual cultures for further characterization. Individual clones were expanded into 24 well tissue culture plates, and genomic DNA was prepared and analyzed by restriction digestion and Southern hybridization. […] This clone was expanded for further characterization and use as a reporter cell line for LDLR gene expression. To determine whether the expression of luciferase gene is regulated as the same way as the endogenous LDLR gene, RNA was prepared and analyzed by Northern hybridization. […] The cholesterol-dependent regulation is the hallmark of LDLR gene expression. As indicated, the LDLR mRNA was regulated by in the presence or absence of cholesterol, albeit in this case the LDLR mRNA level was reduced to half due to the loss of one allele, which was replaced by the luciferase gene. The use of the luciferase knock-in cell line for LDLR gene expression was further validated by the luciferase activity, which was also regulated by cholesterol as predicted.

Structure (SMILES)	luciferase activity (LDLR gene expression [1])	LDLR mRNA (LDLR gene expression [2]; presence or absence of cholesterol)	luciferase mRNA (LDLR gene expression [2]; compared with lipid-depleted media, where mRNA was elevated)
CC(C)CCC[C@@H](C)[C@H]1CC[C@H]2[C@@H]3CC=C4C[C@@H](O)CC[C@]4(C)[C@H]3CC[C@]12C [cholesterol]	regulated	regulated	–
C[C@H](CCCC(C)(C)O)[C@H]1CC[C@H]2[C@@H]3CC=C4C[C@@H](O)CC[C@]4(C)[C@H]3CC[C@]12C [25-hydroxycholesterol]	–	–	suppressed
